{"source": "BindingDB's records for doi:10.1016/j.bmc.2020.115818", "about": "(Taisho Pharmaceutical, 2020)", "test": "Inhibition of F protein in Respiratory syncytial virus A2 infected in HepG2 cells assessed as reduction in virus-induced cytopathic effect incubated for 4 days by XTT assay"}
{"molecule": "Cc1ccc2c(c1)C(=O)N1CCCC[C@H]1c1cc3nc([C@H]4C[C@H](O)C4)cc(n3n1)N(C)CCNC(=O)CO2", "values": [{"measurement": "EC50", "result": 0.77, "unit": "nM"}]}
